Entries after “also recorded” stand apart in the source; their conditions may differ. Ends that are not written are not given here.
Assays:
MyD88 = target: T1, MyD88 (Homo sapiens, UniProt Q99836); experiment: MyD88 inhibitor pre-treatment before stimulation, cytokine ELISA; type: cell-based; conditions: monocytes, st-2825 30 μM, 1 hr pre-incubation
T1 construct: endogenous in cells; host or cells: PBMC / monocytes from blood donors
Method: In some experiments, cells were pre-treated with the MyD88 inhibitor st-2825 (MedChemExpress) or the Caspase-1 inhibitor Ac-YVAD (InvivoGen) for 1 hr before stimulation with TLR ligands or the purified nuclear proteins. In some other experiments, cells were pre-incubated for 1 hr with anti-TLR2, TLR4 and TLR5 antibodies (InvivoGen) before stimulation. The optimal st-2825 and Ac-YVAD concentrations were determined based on both their effects on cell viability and LPS-induced cytokine production. Cell viability was determined using the CELLTITER 96® AQueous One Solution Cell Proliferation (MTS) Assay (Promega).
We then examined whether NCL still induces cytokines when MyD88 is inhibited [Kawai, T. and Akira, S., Semin Immunol 19: 24-32 (2007)]. A MyD88 inhibitor st-2825 was used in this experiment (FIG. 3A). Its optimal concentration was, after titration of its cytotoxicity and its inhibition of LPS-induced cytokine production, determined to be 30 μM (FIG. 5). […] The inhibition of TNFα production by Ac-YVAD could be explained by its blocking autocrine monocytes activation through the IL-1β these cells produce (FIG. 4).

PBMC [1] = experiment: PBMC activation, TNFα and IL-1β ELISA; type: cell-based, human; parameters: PBMC activation (TNFα) by FBRL peptides: dose or concentration left out as unconfirmed; conditions: peptides added to 50 or 160, 24 hr
TLR2 [2] = target: T2, TLR2 (Homo sapiens, UniProt O60603); experiment: TLR2 binding assay (ELISA plate); parameters: purchased R&D Systems; conditions: for TLR2 binding to coated NCL-HA mutants (summary experiment): protein coated 10 μg/ml, TLR2 2 μg/ml; for peptide binding to coated TLR2: biotin peptides at increasing concentrations
monocytes = experiment: Monocyte activation, TNFα and IL-1β ELISA; type: cell-based, human; conditions: for TNFα and IL-1β production from monocytes: protein coated on plates, ELISA; for TNFα induction from monocytes (7 NCL peptides): peptides 50 or 200 μg/ml
Method: Buffy coat fractions were obtained from healthy blood donors at the Singapore Health Sciences Authority, with Institutional ethics approval, and PBMC were isolated using Ficoll-Paque (GE Healthcare). To isolate monocytes, PBMC were re-suspended to 1×10^7 cells/ml in the RPMI medium contained 5% (v/v) BCS and incubated for 1 hr in T75 flasks (20 ml/flask). Monocytes that adhered were harvested. To culture macrophages and DC [Cao, W., et al., Blood 107: 2777-2785, (2006), incorporated herein by reference], monocytes were resuspended to 1×10^6 cells/ml and cultured in 6-well plates (2 ml/well). Macrophages were cultured by adding M-CSF to 20 ng/ml and DC were cultured with 20 ng/ml GM-CSF and 40 ng/ml IL-4. M-CSF, GM-CSF and IL-4 were obtained from R&D Systems (Mineapolis, Minn.). Cells were cultured for 6 days with half of the media being replenished every two days.
[…] Where TLR ligands were used to stimulate these cells, they were added to the media: LPS (500 ng/ml for DC and macrophages and 10 ng/ml for PMBC and monocytes, InvivoGen), flagellin (1 μg/ml, InvivoGen), lipoteichic acid (LTA, 10 μg/ml). Cell activation was determined by measuring TNFα and IL-1β in the culture media using ELISA kits (Invitrogen).

PBMC [3] = experiment: Peptide binding to and penetration of PBMC, flow cytometry; type: cell-based, human; conditions: 1 hr at 4° C., fixed/permeabilized, streptavidin-AF488
Method: PBMC re-suspended in 100 μl macrophage serum free media (3×10^6/ml) were incubated with different peptides (200 μg/ml). PBMC (100 μl) were incubated with the peptides for 1 hr at 37° C. or 4° C. Cells were washed twice in 2% FBS/PBS and incubated with streptavidin-AF488 and Zombie (NIR) Fixable viability stain-APC-Cy7 for 30 min at 4° C. Cells were then fixed with 1% PFA for 30 min at room temperature and analysed using the Fortessa analyser (BD). In some experiments, PBMC were, after incubation with peptides, incubated with Zombie (NIR) Fixable viability stain (APC-Cy7) for 30 min at 4° C. Cells were then fixed and permeabilized with BD CYTOFIX/CYTOPERM™ Kit for 20 min at 4° C., and then incubated with streptavidin-AF488 for 30 min at 4° C. In some experiments, PBMC were, after incubation with the peptides, stained with fluorescent mouse antibodies specific for monocytes (CD14/BV711), T cells (CD3/PerCP-Cy5-5) and B cells (CD19/Pacific blue). Cells were then stained with Zombie (NIR) Fixable viability stain-APC-Cy7 and streptavin-AF488, with or without membrane permeabilization. In these experiments, monocytes, T cells and B cells were separately gated to detect surface peptide binding and intracellular peptide penetration.

TLR2 [4] = target: T2, TLR2; experiment: TLR and NF-κB-luciferase assay in 293T cells, TLR2/TLR1/TLR6/TLR10; type: cell-based; parameters: expressed in transfected cells; host or cells: human embryonic kidney 293T cells; conditions: peptides 200 μg/ml, 24 hr
Method: TLR-mediated NF-κB activation was determined using a Dual Luciferase Reporter Assay (Promega), in which two luciferase reporter plasmids were used. […] Transfection was performed using the TurboFect Transfection Reagent (Thermo Fisher Scientific). After 24 hr, cells were harvested and cultured for 24 hr in 96-well plates coated with the purified proteins or, as controls, cultured in blank plates but stimulated with TLR ligands. Cells were lysed to measure both firefly and Renilla luciferase activities and, in each sample, the firefly activity was normalized to the Renilla luciferase activity and expressed as relative NF-κB activation.
TLRs and, where it required, co-receptors were co-transfected in a total of 4 combinations, i.e. TLR2/1/6/10, TLR4/CD14/MD2, TLR5, or TLR3/7/8/9. Two luciferase expression vectors were used: one expresses the firefly luciferase under 5 repeats of the NF-κB gene promoter and the other expresses the Renilla luciferase under the constitutively active CMV promoter (FIG. 3A).

[5] = target: T3, Recombinant human TLR2-10×His (R&D Systems) (human, UniProt O60603 21-590); experiment: ELISA: biotin peptide on coated TLR2
T3 construct: Bought protein; also called His-tagged TLR2
T3 sequence (O60603 other isoform, or with tags, fused parts or gaps limits assumed): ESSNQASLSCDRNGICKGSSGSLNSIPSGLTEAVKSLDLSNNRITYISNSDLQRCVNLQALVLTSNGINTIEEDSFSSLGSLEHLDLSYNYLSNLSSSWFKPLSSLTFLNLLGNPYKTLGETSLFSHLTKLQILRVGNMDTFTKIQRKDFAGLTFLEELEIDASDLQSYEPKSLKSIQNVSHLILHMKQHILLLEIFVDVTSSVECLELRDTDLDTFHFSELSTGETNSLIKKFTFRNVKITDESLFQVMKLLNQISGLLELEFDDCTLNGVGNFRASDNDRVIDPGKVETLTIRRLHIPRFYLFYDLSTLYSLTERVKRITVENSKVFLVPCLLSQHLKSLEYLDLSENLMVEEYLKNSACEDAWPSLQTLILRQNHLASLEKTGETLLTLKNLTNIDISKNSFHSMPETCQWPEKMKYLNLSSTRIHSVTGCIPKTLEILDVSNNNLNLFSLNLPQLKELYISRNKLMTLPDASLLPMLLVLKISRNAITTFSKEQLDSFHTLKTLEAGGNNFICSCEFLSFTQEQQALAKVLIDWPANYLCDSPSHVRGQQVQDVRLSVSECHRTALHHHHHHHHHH

[6] = system: autologous CD4 and CD8 T cells; experiment: Antigen-loaded DC co-culture with autologous lymphocytes, proliferation; type: cell-based, human; conditions: DC:T 1:5, 2 weeks co-culture, CellTrace Violet
Method: PBMC were isolated from healthy blood donors from which monocytes were isolated to culture DC and the remaining cells (mostly lymphocytes) were stored frozen as a source of autologous lymphocytes. DC were then incubated for 24 hr with P2+G, IPA1E2 or the IPA1E2-P2+G fusion polypeptide (SEQ ID NO: 58) in round bottom 96-well plates (5×10^4 cells/well) without adding additional adjuvants. The frozen lymphocytes were revived and labelled with CellTrace Violet (2.5 μM) for 10 min at 37° C. and then added to the DC wells at 2.5×10^5 cells/well (DC:T ratio=1:5). After 2 weeks of co-culture, the proliferation of CD4+ and CD8+ T cell and CD19+ B cell was analyzed by flow cytometry.

T1 sequence (Q99836 whole entry): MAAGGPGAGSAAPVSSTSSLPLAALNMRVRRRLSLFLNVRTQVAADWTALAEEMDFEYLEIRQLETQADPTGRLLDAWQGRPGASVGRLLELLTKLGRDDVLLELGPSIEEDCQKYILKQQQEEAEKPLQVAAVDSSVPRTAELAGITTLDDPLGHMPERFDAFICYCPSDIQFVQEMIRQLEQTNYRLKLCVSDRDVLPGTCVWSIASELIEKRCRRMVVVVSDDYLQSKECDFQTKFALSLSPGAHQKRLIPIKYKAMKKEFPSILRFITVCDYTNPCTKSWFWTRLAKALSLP

NC(=O)[C@H]1CCS[C@@H]2C[C@]3(CCCN3C(=O)Cc3ccc(NC(=O)COc4ccc(Cl)cc4Cl)cc3)C(=O)N12 [st-2825]
inhibition of HMGB1 and LPS induction of TNFα and IL-1β (MyD88): also inhibited | inhibition of NCL induction of TNFα and IL-1β (MyD88): partially but significantly inhibited

RGGGFGGRGGFGDRGGRGGRGG (FBRL-P1)
PBMC activation (TNFα) by FBRL peptides (PBMC [1]): activated PBMC

NCL(698)-HA: NCL-HA mutant in which 12 amino acids were deleted from the C-terminal end
TLR2 binding to coated NCL-HA mutants (summary experiment) (TLR2 [2]): bound | TNFα and IL-1β production from monocytes (monocytes; 24 hr): continued to stimulate monocytes

GGFGGRGGGRGGFGGRGGGRGGRGGFGGRGRG (NCL-P1)
peptide binding to coated TLR2 (TLR2 [2]; TLR2 coated 2 μg/ml): dose-dependent and saturable binding to TLR2 | cytokine induction, soluble versus coated (immobilized) form (monocytes; monocytes, 24 hr): induced more cytokines than immobilized peptides | TNFα induction from monocytes (7 NCL peptides) (monocytes; 24 hr): induced TNFα | TNFα induction from monocytes at lower concentrations (monocytes; soluble peptide 10 and 20 μg/ml): induced little TNFα | TNFα induction from monocytes at higher concentrations (monocytes; soluble peptide 80 and 160 μg/ml): strongly induced TNFα production | intracellular pool / cell penetration (CPP activity) in PBMC (PBMC [3]): accumulate intracellular pools

RGGFGGGRGRGGGFRGRGRGG (FBRL-P2)
PBMC activation (TNFα) by FBRL peptides (PBMC [1]): activated PBMC

RGGFGGRGGGRGGRGGFGGRG (NCL-P6)
concentration at which saturated TLR2 binding was reached (TLR2 [2]; TLR2 coated 2 μg/ml): 80 µg/mL | peptide binding to coated TLR2 (TLR2 [2]; TLR2 coated 2 μg/ml): largely replicated NCL-P2 in TLR2 binding | TNFα induction from monocytes (7 NCL peptides) (monocytes; 24 hr): induced TNFα; also recorded: minor adjuvant activity | intracellular pool / cell penetration (CPP activity) in PBMC (PBMC [3]): all lacked cell penetration; also recorded: diminished CPP activities

NCL(670)-HA: NCL-HA C-terminal deletion mutant of 670 residues with a residual GAR/RGG region
TLR2 binding to coated NCL-HA mutants (summary experiment) (TLR2 [2]): weak binding | TNFα and IL-1β production from monocytes (monocytes; 24 hr): no longer stimulates monocytes; also recorded: apparently insufficient

NCL-P3: control peptide covering the C-terminal 12 residues of NCL outside the GAR/RGG domain (DHKPQGKKTKFE; NCL-P3)
peptide binding to coated TLR2 (TLR2 [2]; TLR2 coated 2 μg/ml): no detectable binding; also recorded: lacked TLR2 binding | TNFα induction from monocytes, all concentrations (monocytes; soluble peptide 10 to 160 μg/ml, 24 hr): no TNFα induction | TLR2-mediated NF-κB activation by peptides (TLR2 [4]): not observed | intracellular pool / cell penetration (CPP activity) in PBMC (PBMC [3]): no intracellular pool; also recorded: not a 12-AA non-GAR/RGG peptide

B1: NCL-P5 peptide, N-terminal biotin (peptide)
peptide: RGGRGGFGGRG
modifications: not fully specified (N-terminus)
notes: Synthetic peptide
binding result [5]: binds

B2: IPA1E2-P2+G: P2+G synthesized in fusion with the 30-AA peptide antigen IPA1E2 (peptide)
chain: GQGQLVKRPKIMRFISHLWLALESANSEKRGGFGGRGGGRGGRGGFGGRGGRGGFGGRGGFRGGRGG
modifications: IPA1E2-P2+G
notes: P2+G synthesized in fusion with the 30-AA peptide antigen IPA1E2
T cell proliferation / activation induced by peptide-loaded DC [6]: significantly increased T cell proliferation

B3: NCL-P4 peptide, N-terminal biotin (peptide)
peptide: RGGFGGRGGG
modifications: not fully specified (N-terminus)
notes: Synthetic peptide; also called NCL-4
binding result [5]: no binding (tested: 200 µg/ml)

B4: NCL-P1 peptide (32 residues), N-terminal biotin (peptide)
peptide: GGFGGRGGGRGGFGGRGGGRGGRGGFGGRGRG
modifications: not fully specified (N-terminus)
notes: Synthetic peptide
binding result [5]: binds

B5: NCL-P3 control peptide (C-terminal 12 residues of NCL), N-terminal biotin (peptide)
peptide: DHKPQGKKTKFE
modifications: not fully specified (N-terminus)
notes: Synthetic peptide
binding result [5]: no binding (tested: 0.64 to 1,000 ng/ml)
